Experimental data: paper PMC9024521, “4-Heteroaryl Substituted Amino-3,5-Dicyanopyridines as New Adenosine Receptor Ligands: Novel Insights on Structure-Activity Relationships and Perspectives” (Pharmaceuticals, 2022)

Assays:
hA2B AR = target: T1, hA2B AR (Homo sapiens, UniProt P29275); assay: cAMP assay in CHO cells expressing hA2B AR (stimulation of cAMP production); type: cell-based; details: for Emax at 1 µM: CHO, 1 µM compound, in comparison with NECA (1 µM = 100%), read-out: Efficacy hA2B (cAMP assay) (converted); for EC50: hA2B CHO cells, mean ± SEM of four assays
T1 construct: host or cells: CHO cells
T1 sequence (P29275 1-332): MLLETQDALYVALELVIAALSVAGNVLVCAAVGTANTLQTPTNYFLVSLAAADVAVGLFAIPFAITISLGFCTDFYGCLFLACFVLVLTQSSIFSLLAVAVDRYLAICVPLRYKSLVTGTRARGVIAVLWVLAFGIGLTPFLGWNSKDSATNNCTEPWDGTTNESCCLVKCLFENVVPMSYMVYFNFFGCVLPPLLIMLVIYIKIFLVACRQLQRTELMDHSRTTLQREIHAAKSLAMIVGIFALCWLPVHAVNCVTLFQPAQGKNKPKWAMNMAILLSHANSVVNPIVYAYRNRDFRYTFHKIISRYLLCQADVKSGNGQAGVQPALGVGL
Description: The amino-3,5-dicyanopyridines 1–21 were tested for their affinity at hA1, hA2A and hA3 ARs, stably transfected in Chinese Hamster Ovary (CHO) cells. Moreover, they were also studied as hA2B agonists by evaluating their stimulatory effect on cAMP production in CHO cells, stably expressing the hA2B AR. […] Due to their interesting pan profile, both compounds 1 and 5 were evaluated as AR agonists also at the hA2A and hA3 subtypes.
(§1) CHO cells transfected with hA1, hA2A, hA2B and hA3 ARs (Perkin Elmer, Boston, MA, USA) were grown adherently and maintained in Dulbecco’s modified Eagle’s medium with nutrient mixture F12, containing 10% fetal calf serum, penicillin (100 U/mL), streptomycin (100 μg/mL), L-glutamine (2 mM) and geneticine (G418; 0.2 mg/mL), at 37 °C, in 5% CO2/95% air, until their use in cAMP assays. For membrane preparation, the culture medium was removed, and the cells were washed with phosphate-buffered saline and scraped off T75 flasks in ice-cold hypotonic buffer (5 mM Tris HCl, 1 mM EDTA, pH 7.4). The cell suspension was homogenized with a Polytron, centrifuged for 30 min at 40,000× g, at 4 °C, and the resulting membrane pellet was used for competition binding experiments.
CHO cells transfected with hAR subtypes were washed with phosphate-buffered saline, detached with tripsine and centrifuged for 10 min at 200× g. Cells were seeded in a 96-well white half-area microplate (Perkin Elmer, Boston, USA) in a stimulation buffer composed of Hank Balanced Salt Solution, 5 mM HEPES, 0.5 mM Ro 20–1724, 0.1% BSA. The cAMP levels were then quantified by using the AlphaScreen cAMP Detection Kit (Perkin Elmer, Boston, MA, USA), following the manufacturer’s instructions. At the end of the experiments, the plates were read with a Perkin Elmer EnSight Multimode Plate Reader.

hA1AR = target: T2, hA1AR (Homo sapiens, UniProt P30542); assay: Competition binding, [3H]DPCPX, hA1 CHO cell membranes; details: displacement of [3H]DPCPX, hA1 CHO cells; mean ± SEM of four assays
T2 construct: host or cells: CHO cells
T2 sequence (P30542 1-326): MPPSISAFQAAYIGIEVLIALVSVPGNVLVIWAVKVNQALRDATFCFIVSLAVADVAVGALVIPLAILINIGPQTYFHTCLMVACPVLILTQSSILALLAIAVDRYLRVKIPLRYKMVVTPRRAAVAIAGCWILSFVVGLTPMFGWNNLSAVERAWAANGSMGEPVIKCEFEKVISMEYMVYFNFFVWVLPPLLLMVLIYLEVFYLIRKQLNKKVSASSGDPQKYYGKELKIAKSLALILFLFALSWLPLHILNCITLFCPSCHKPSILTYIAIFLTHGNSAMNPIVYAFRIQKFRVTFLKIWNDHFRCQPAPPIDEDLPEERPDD
Description: as §1
All synthesized compounds were tested for their affinity to hA1, hA2A and hA3 ARs. Competition experiments to hA1AR were carried out by incubating 1 nM [^3H]-8-cyclopentyl-1,3-dipropylxanthine ([^3H]-DPCPX) with membrane suspension (50 μg of protein/100 μL) and different concentrations of the examined compounds at 25 °C for 90 min in 50 mM Tris HCl, pH 7.4. Non-specific binding was defined as binding in the presence of 1 μM DPCPX and was always <10% of the total binding. Inhibition experiments to hA2A ARs were performed by incubating the radioligand [^3H]-4-(-2-[7-amino-2-{2-furyl}{1,2,4}triazolo{2,3-a} {1,3,5}triazin-5-yl-amino]ethyl)phenol ([^3H]-ZM241385) (1 nM) with the membrane suspension (50 μg of protein/100 μL) and different concentrations of the examined compounds for 60 min, at 4 °C, in 50 mM Tris HCl (pH 7.4), 10 mM MgCl2. Non-specific binding was determined in the presence of ZM241385 (1 μM) and was about 20% of the total binding. Competition binding experiments to A3ARs were carried out by incubating the membrane suspension (50 μg of protein/100 μL) with 0.5 nM [^125I]-N6-(4-aminobenzyl)-N-methylcarboxamidoadenosine ([^125I]-ABMECA) in the presence of different concentrations of the examined compounds for an incubation time of 120 min, at 4 °C, in 50 mM Tris HCl (pH 7.4), 10 mM MgCl2, 1 mM EDTA. Non-specific binding was defined as binding in the presence of 1 μM ABMECA and was always <10% of the total binding. Bound and free radioactivity were separated by filtering the assay mixture through Whatman GF/B glass-fiber filters, using a Brandel cell harvester (Brandel Instruments, Unterföhring, Germany). The filter bound radioactivity was counted by Packard Tri Carb 2810 TR scintillation counter (Perkin Elmer).
The protein concentration was determined according to a Bio-Rad method, with bovine albumin as a standard reference. Inhibitory binding constant (Ki) values were calculated from those of IC50 according to the Cheng–Prusoff equation, Ki = IC50/(1 + [C*]/KD*), where [C*] is the concentration of the radioligand, and KD* its dissociation constant. Ki and IC50 values were calculated by non-linear regression analysis, using the equation for a sigmoid concentration-response curve (Graph-PAD Prism, San Diego, CA, USA).

[1] = Solubility in testing medium; type: physicochemical; details: PBS + Tween 80 (2% w/w), pH 7.4, aqueous with cosolvent or surfactant or cyclodextrin

SMILES	Emax at 1 µM (hA2B AR)	EC50 (hA2B AR)	Ki (hA1AR)	solubility [1]
N#Cc1c(N)nc(SCc2ncc[nH]2)c(C#N)c1-c1ccco1 [Compound 1, 2-Amino-4-(furan-2-yl)-6-[(1H-imidazol-2-ylmethyl)sulfanyl]pyridine-3,5-dicarbonitrile]	52%	1.4 ± 0.2 nM	9.63 ± 1.61 nM	40.6 ± 0.16 µg/mL
N#Cc1c(N)nc(SCc2ncc[nH]2)c(C#N)c1-c1cccs1 [Compound 5, 2-Amino-6-[(1H-imidazol-2-ylmethyl)sulfanyl]-4-(thiophen-2-yl)pyridine-3,5-dicarbonitrile]	73%	1.12 ± 0.11 nM	2.5 ± 0.2 nM	27.3 ± 2.52 µg/mL
